PubChem BioAssay (NCI)
“And” between values parts separate entries of the source, which are not always exact repeats. Equal entries are not always repeated.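 Assay format: 96-well plates, 48-hour exposure. GI50 is the concentration that inhibits growth by half. TGI marks complete inhibition of growth.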

Key:
Test in all cases: NCI-60 cell line screen, 48 h
[1] = test system: HCT-15 colon
[2] = test system: TK-10 renal
[3] = test system: OVCAR-3 ovarian
[4] = test system: LOX IMVI melanoma
[5] = test system: HS 578T breast
[6] = test system: BT-549 breast
[7] = test system: M14 melanoma
[8] = test system: A549 NSCLC
[9] = test system: OVCAR-8 ovarian
[10] = test system: COLO 205 colon

| Compound | GI50 [1] | TGI [1] | GI50 [2] | TGI [2] | GI50 [3] | TGI [3] | GI50 [4] | TGI [4] | GI50 [5] | TGI [5] | GI50 [6] | TGI [6] | GI50 [7] | TGI [7] | GI50 [8] | TGI [8] | GI50 [9] | TGI [9] | GI50 [10] | TGI [10] |
| --- | --- | --- | --- | --- | --- | --- | --- | --- | --- | --- | --- | --- | --- | --- | --- | --- | --- | --- | --- | --- |
| COc1cc(/C=C/C(=O)c2ccc(F)cc2)ccc1OCCCN1CCN(CC(=O)Nc2ccc(Cl)cc2C(=O)c2ccccc2Cl)CC1 | 4.09 µM | 19.5 µM | 10.4 µM | 26.1 µM | 11.3 µM | 27.2 µM | 3.97 µM | 14.6 µM | 7.01 µM | 46.3 µM | 10.8 µM | 26.2 µM | 3.4 µM | 13.3 µM | 15.9 µM | > 100 µM | 11.7 µM | 68.1 µM | 4.47 µM | 23.8 µM |
| O=S(=O)(c1cccc2c(I)cccc12)N1CCCNCC1 | 17.9 µM | 34.7 µM | 12.8 µM | 28 µM | 18.7 µM | 43.3 µM | 18.3 µM | 36.6 µM | 15.4 µM | 39.5 µM | 16.7 µM | 43.3 µM | 19.8 µM | 39.2 µM | 37 µM | > 100 µM | 24.4 µM | 51.9 µM | 29.1 µM | > 100 µM |
| CC1=C(C(=O)N(C)c2ccc(Cl)c(C(=O)OC(C)C)c2)SCCO1 |  | > 100 µM |  | > 100 µM |  | > 100 µM |  | > 100 µM |  | > 100 µM |  | > 100 µM |  | > 100 µM |  | > 100 µM |  | > 100 µM |  | > 100 µM |
| C#CCNCCN1C(=O)c2ccc3c4c(ccc(c24)C1=O)C(=O)N(CCNCC#C)C3=O | 2.95 µM | 10.6 µM | 7.38 µM | 23.8 µM | 1.52 µM | 4.22 µM | 1.76 µM | 8.08 µM | 8.35 µM | 29.2 µM | 7.27 µM | 14.7 µM | 5.52 µM | 12.6 µM | 2.69 µM | 11.6 µM | 2.25 µM | 20.8 µM | 2 µM | 6.92 µM |
| CN1CCc2[nH]nc(-c3n[nH]c4c3CN(C)CC4)c2C1 |  | > 100 µM |  | > 100 µM |  | > 100 µM |  | > 100 µM |  | > 100 µM |  | > 100 µM |  | > 100 µM |  | > 100 µM |  | > 100 µM |  | > 100 µM |
| CC(C)CCNCC(O)Cn1c2ccccc2c2ccccc21 (stereo not drawn) | 11.9 µM | 26.7 µM | 14 µM | 27.6 µM | 13.4 µM | 26.8 µM | 5.6 µM | 18.5 µM | 13.8 µM | 38.9 µM | 16.5 µM | 31.4 µM | 2.73 µM | 7.5 µM | 16.4 µM | 31.9 µM | 13.7 µM | 33.7 µM | 2 µM | 3.95 µM |
| O=[N+]([O-])c1cc(Cl)cnc1Br |  | 7.11 µM |  | 12.4 µM |  | 6.2 µM |  | 3.16 µM |  | 59.9 µM |  | 11.3 µM |  | 16.3 µM |  | 8.26 µM |  | 5.02 µM |  | 3.12 µM |
| COc1ccc(C2=CC(c3ccc(OC)cc3Br)N3C=CSC3=N2)cc1 (stereo not drawn) | 1.49 µM | 3.41 µM | 13.9 µM | 33.3 µM | 4.11 µM | 14.8 µM | 2 µM | 4.03 µM | 14.4 µM | 66.5 µM | 3.19 µM | 12.1 µM | 5.21 µM | 20.8 µM | 10.5 µM | 39 µM | 4.09 µM | 27.8 µM | 11.3 µM | 25.1 µM |
| O=[N+]([O-])c1ccc(N2CCC(CCCC3CCN(c4ccc([N+](=O)[O-])cc4[N+](=O)[O-])CC3)CC2)c([N+](=O)[O-])c1 |  | 41.6 µM |  | 32.7 µM |  | 34.5 µM |  | 30.2 µM |  | > 100 µM |  | 71.8 µM |  | 26.7 µM |  | 31.8 µM |  | 33.3 µM |  | 31.8 µM |
| COc1ccc(Cl)c(Nc2nc3ccccc3nc2NS(=O)(=O)c2cccc(NC(=O)C(C)(C)N)c2)c1 | 9.76 µM and 6.97 µM | 22 µM and > 10 µM | 5.68 µM and 4.24 µM | 20.1 µM and > 10 µM | 7.68 µM and 4.12 µM | 21.3 µM and > 10 µM | 6.52 µM and 4.14 µM | 20.2 µM and > 10 µM | 2.37 µM and 1.69 µM | 15.1 µM and > 10 µM | 4.87 µM and 4.42 µM | 18.4 µM and > 10 µM | 12.5 µM and > 10 µM | 29 µM and > 10 µM | 7.7 µM and > 10 µM | 21.4 µM and > 10 µM | 14 µM and > 10 µM | 32.8 µM and > 10 µM | 7.53 µM and 2.86 µM | 22.3 µM and > 10 µM |
| N#CSCc1ccc(Cl)c(CSC#N)c1 | 0.143 µM | 25.1 µM | 14.5 µM | 46.6 µM | 0.165 µM | 18.1 µM | 0.151 µM | 13.6 µM | 3.16 µM | 97.9 µM | 0.303 µM | 11.2 µM | 0.0759 µM | 14.8 µM | 1.44 µM | > 58.4 µM | 0.298 µM | > 73.6 µM | 0.0513 µM | 11.4 µM |
| CC1=C(CCC(C)NCc2ccc(OCCCN3CCCCC3)cc2)C(C)(C)CCC1 (stereo not drawn) | 0.575 µM | 2.03 µM | 1.69 µM | 3.19 µM | 1.79 µM | 4.07 µM | 1.44 µM | 2.85 µM | 1.61 µM | 3.79 µM | 2.08 µM | 3.89 µM | 0.214 µM | 0.468 µM | 2.17 µM | 4.35 µM | 2.48 µM | 5.31 µM | 0.197 µM | 0.427 µM |
| Nc1ccccc1C#C/C=C\C#Cc1cccc(O)c1 | 2.04 µM | 13.9 µM | 8.73 µM | 29.7 µM | 2.73 µM | 14.7 µM | 0.579 µM | 10.8 µM | 3.39 µM | 22.8 µM | 7.12 µM | 25.8 µM | 1.3 µM | 5.65 µM | 2.78 µM | 15.7 µM | 0.663 µM | 13.9 µM | 8.45 µM | 23 µM |
| Cn1cc(-c2csc(-c3cn(CCCN4CCCCC4)c4ccccc34)n2)c2cccnc21 | 1.7 µM | 3.2 µM | 1.6 µM | 2.96 µM | 1.7 µM | 3.14 µM | 1.66 µM | 3.11 µM | 2.55 µM | 6.26 µM | 1.56 µM | 2.94 µM | 1.82 µM | 3.38 µM | 1.97 µM | 3.6 µM |  |  | 1.82 µM | 3.61 µM |
